Like-named read-outs stand apart in the source and are kept apart here.
Columns and labels:
[1] = biological target: PI3K (Homo sapiens, UniProt P42336); test: Fluorescence polarization assay for PI3K; assay type: biochemical;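 note: PI3K kinase reaction on PIP2 with ATP, 30-60 min, product sensed by GST-GRP with red probe in fluorescence polarization (mP), controls without enzyme and at zero time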
[2] = system: prostate line LNCap; test: In vitro cell culture growth assay (MTS), LNCap; assay type: cell-based, human; conditions: LNCap cells, three days after drug treatment;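 note: viable cell density read by absorbance at 490 nm, growth expressed as percent of vehicle-treated cells on the same plate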
[3] = system: breast line MDA468; test: In vitro cell culture growth assay (MTS), MDA468; assay type: cell-based, human; conditions: MDA468 cells, three days after drug treatment
Summary of the method: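 Growth measured as percent of same-plate vehicle control by MTS metabolic dye conversion (A490). Breast MDA468 and prostate LNCap cells, plated a day ahead, were exposed to compounds for 3 days.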

PI3K, sequence (P42336 whole entry): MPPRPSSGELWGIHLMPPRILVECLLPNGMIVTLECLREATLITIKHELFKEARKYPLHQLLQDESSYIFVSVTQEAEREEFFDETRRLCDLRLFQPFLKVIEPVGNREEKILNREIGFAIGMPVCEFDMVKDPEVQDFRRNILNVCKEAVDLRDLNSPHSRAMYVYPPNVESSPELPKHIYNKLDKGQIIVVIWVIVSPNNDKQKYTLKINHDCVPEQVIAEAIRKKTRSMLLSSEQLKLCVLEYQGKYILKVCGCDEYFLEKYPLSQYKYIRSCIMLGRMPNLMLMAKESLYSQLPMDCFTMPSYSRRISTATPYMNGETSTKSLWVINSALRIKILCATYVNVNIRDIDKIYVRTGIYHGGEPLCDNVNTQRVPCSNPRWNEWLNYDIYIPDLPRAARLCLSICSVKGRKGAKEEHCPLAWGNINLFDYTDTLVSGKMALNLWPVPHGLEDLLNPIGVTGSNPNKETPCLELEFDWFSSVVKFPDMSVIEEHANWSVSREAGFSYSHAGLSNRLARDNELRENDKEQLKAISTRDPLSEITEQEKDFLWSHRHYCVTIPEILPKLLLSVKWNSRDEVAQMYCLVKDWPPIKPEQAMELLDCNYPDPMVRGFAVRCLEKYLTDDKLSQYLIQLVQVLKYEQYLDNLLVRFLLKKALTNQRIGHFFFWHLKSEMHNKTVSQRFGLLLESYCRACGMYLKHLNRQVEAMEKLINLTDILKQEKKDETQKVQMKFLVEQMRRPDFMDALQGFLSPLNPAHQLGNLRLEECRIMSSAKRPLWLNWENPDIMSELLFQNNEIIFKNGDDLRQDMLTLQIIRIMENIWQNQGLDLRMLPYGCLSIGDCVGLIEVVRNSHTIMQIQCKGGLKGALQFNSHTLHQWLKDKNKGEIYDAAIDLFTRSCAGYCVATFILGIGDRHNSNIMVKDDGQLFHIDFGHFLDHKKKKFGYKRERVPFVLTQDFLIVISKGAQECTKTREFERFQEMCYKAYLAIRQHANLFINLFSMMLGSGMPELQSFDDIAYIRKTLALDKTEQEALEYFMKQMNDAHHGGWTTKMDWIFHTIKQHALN
PI3K, sequence (P27986 whole entry partner): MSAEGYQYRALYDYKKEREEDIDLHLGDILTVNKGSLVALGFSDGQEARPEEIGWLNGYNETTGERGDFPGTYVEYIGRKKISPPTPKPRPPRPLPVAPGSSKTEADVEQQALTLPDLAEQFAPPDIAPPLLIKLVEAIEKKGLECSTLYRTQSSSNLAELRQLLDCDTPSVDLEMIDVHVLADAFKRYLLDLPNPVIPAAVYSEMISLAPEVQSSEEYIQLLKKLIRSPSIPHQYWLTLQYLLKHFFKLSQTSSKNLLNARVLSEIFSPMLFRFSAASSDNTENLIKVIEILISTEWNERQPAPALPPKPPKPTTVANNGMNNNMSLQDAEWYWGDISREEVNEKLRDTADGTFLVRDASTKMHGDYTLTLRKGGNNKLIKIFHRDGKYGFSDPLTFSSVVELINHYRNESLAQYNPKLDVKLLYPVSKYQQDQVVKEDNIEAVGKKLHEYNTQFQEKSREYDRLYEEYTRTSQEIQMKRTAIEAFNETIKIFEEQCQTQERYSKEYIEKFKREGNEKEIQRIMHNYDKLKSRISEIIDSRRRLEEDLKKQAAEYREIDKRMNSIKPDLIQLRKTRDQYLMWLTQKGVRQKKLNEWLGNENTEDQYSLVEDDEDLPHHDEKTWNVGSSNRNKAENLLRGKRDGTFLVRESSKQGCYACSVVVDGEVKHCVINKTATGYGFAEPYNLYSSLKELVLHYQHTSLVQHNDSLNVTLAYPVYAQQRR

IC50 ([1]; PI3Kα, read-out: PI3Kα IC50) [µM]	IC50 ([2]; Homo sapiens, LNCaP, 72 h) [µM]	IC50 [2] [µM]	Structure (SMILES)	IC50 ([3]; Homo sapiens, 72 h) [µM]	IC50 ([1]; PI3Kα IC50, PI3Kα) [µM]	IC50 ([2]; Homo sapiens, 72 h) [µM]	IC50 [3] [µM]
0.225	0.8	–	CNC(=O)Nc1ccc(-c2nc(N3CCOCC3)c3cnn(C4CCN(C(C)=O)CC4)c3n2)cc1 [Example 472, 1-{4-[1-(1-acetylpiperidin-4-yl)-4-morpholin-4-yl-1H-pyrazolo[3,4-d]pyrimidin-6-yl]phenyl}-3-methylurea]	1.2	–	–	–
0.059	0.4	–	CC(C)C(=O)N1CCC(n2ncc3c(N4CCOCC4)nc(-c4cccc(O)c4)nc32)CC1 [Example 29]	1.2	–	–	–
2.98	1.2	–	O=C(NCCF)Nc1cc(F)c(-c2nc(N3CCOCC3)c3cnn(C4CCN(C(=O)c5cccnc5)CC4)c3n2)cc1F [Example 467, 1-(2,5-difluoro-4-{4-morpholin-4-yl-1-[1-(pyridin-3-ylcarbonyl)piperidin-4-yl]-1H-pyrazolo[3,4-d]pyrimidin-6-yl}phenyl)-3-(2-fluoroethyl)urea]	2.2	–	–	–
–	–	–	CNC(=O)Nc1ccc(-c2nc(N3CCOCC3)c3cnn(C4CCN(C(=O)Oc5ccccc5)CC4)c3n2)cc1 [Compound 755, phenyl 4-(6-{4-[(methylcarbamoyl)amino]phenyl}-4-morpholin-4-yl-1H-pyrazolo[3,4-d]pyrimidin-1-yl)piperidine-1-carboxylate]	0.16	0.016	0.06	–
0.89	3	–	CC(C)(C)OC(=O)N1CCC[C@@H](n2ncc3c(N4CCOCC4)nc(-c4ccc5[nH]ccc5c4)nc32)C1 [Compound 167]	3.1	–	–	–
0.753	0.6	–	COCCCNC(=O)Nc1ccc(-c2nc(N3CCOCC3)c3cnn(C4CCN(Cc5ccccc5)CC4)c3n2)cc1 [Compound 270, 1-{4-[1-(1-benzylpiperidin-4-yl)-4-morpholin-4-yl-1H-pyrazolo[3,4-d]pyrimidin-6-yl]phenyl}-3-(3-methoxypropyl)urea]	3.2	–	–	–
0.148	0.15	–	CNC(=O)Nc1ccc(-c2nc(N3CCOCC3)c3cnn(C4CCN(C(=O)C(C)C)CC4)c3n2)cc1 [Example 475, 1-{4-[1-(1-isobutyrylpiperidin-4-yl)-4-morpholin-4-yl-1H-pyrazolo[3,4-d]pyrimidin-6-yl]phenyl}-3-methylurea]	0.3	–	–	–
1.12	0.06	–	O=C(NCCF)Nc1ccc(-c2nc(N3CCOCC3)c3cnn(C4CCN(CC(F)(F)F)CC4)c3n2)cc1 [Compound 783, 1-(2-fluoroethyl)-3-(4-{4-morpholin-4-yl-1-[1-(2,2,2-trifluoroethyl)piperidin-4-yl]-1H-pyrazolo[3,4-d]pyrimidin-6-yl}phenyl)urea]	0.39	–	–	–
0.04	0.027	–	O=C(Nc1ccc(-c2nc(N3CCOCC3)c3cnn(C4CCN(CC(F)(F)F)CC4)c3n2)cc1)Nc1cccnc1 [Compound 787, 1-(4-{4-morpholin-4-yl-1-[1-(2,2,2-trifluoroethyl)piperidin-4-yl]-1H-pyrazolo[3,4-d]pyrimidin-6-yl}phenyl)-3-pyridin-3-ylurea]	0.14	–	–	–
0.268	0.25	–	C=CCNC(=O)Nc1ccc(-c2nc(N3CCOCC3)c3cnn(C4CCN(Cc5ccccc5)CC4)c3n2)cc1 [Example 263, 1-allyl-3-{4-[1-(1-benzylpiperidin-4-yl)-4-morpholin-4-yl-1H-pyrazolo[3,4-d]pyrimidin-6-yl]phenyl}urea]	1.8	–	–	–
0.074	0.54	–	CNC(=O)Nc1ccc(-c2nc(N3CCOCC3)c3cnn(C4CCS(=O)(=O)CC4)c3n2)cc1 [Compound 869, 1-{4-[1-(1,1-dioxidotetrahydro-2H-thiopyran-4-yl)-4-morpholin-4-yl-1H-pyrazolo[3,4-d]pyrimidin-6-yl]phenyl}-3-methylurea]	0.59	–	–	–
0.186	–	0.056	CNC(=O)Nc1ccc(-c2nc(N3CCOCC3)c3cnn(C4CCN(CC(F)(F)F)CC4)c3n2)cc1 [Compound 714, 1-methyl-3-(4-{4-morpholin-4-yl-1-[1-(2,2,2-trifluoroethyl)piperidin-4-yl]-1H-pyrazolo[3,4-d]pyrimidin-6-yl}phenyl)urea]	–	–	–	0.32
0.59	0.32	–	O=C(NCC(F)(F)F)Nc1ccc(-c2nc(N3CCOCC3)c3cnn(C4CCN(Cc5ccccc5)CC4)c3n2)cc1 [Compound 535, 1-{4-[1-(1-benzylpiperidin-4-yl)-4-morpholin-4-yl-1H-pyrazolo[3,4-d]pyrimidin-6-yl]phenyl}-3-(2,2,2-trifluoroethyl)urea]	1.3	–	–	–
0.877	13	–	NC(=O)c1cccc(-c2nc(N3CCOCC3)c3cnn(C4CCN(Cc5ccccc5)CC4)c3n2)c1 [Compound 82]	29	–	–	–
0.023	0.027	–	CNC(=O)Nc1ccc(-c2nc(N3CCOCC3)c3cnn(C4CCN(CC(=O)c5ccccc5)CC4)c3n2)cc1 [Example 333, 1-methyl-3-(4-{4-morpholin-4-yl-1-[1-(2-oxo-2-phenylethyl)piperidin-4-yl]-1H-pyrazolo[3,4-d]pyrimidin-6-yl}phenyl)urea]	0.2	–	–	–
0.111	20	–	CS(=O)(=O)Nc1cccc(-c2nc(N3CCOCC3)c3cnn(-c4ccccc4)c3n2)c1 [Compound 116]	60	–	–	–
1.85	5.5	–	COC(=O)N1CCC(n2ncc3c(N4CCOCC4)nc(-c4ccc(NC(=O)OCCN5CCN(C)CC5)cc4)nc32)CC1 [Compound 907, methyl 4-{6-[4-({[2-(4-methylpiperazin-1-yl)ethoxy]carbonyl}amino)phenyl]-4-morpholin-4-yl-1H-pyrazolo[3,4-d]pyrimidin-1-yl}piperidine-1-carboxylate]	7	–	–	–
2.14	1	–	O=C(NCCc1ccccc1)Nc1ccc(-c2nc(N3CCOCC3)c3cnn(C4CCN(Cc5ccccc5)CC4)c3n2)cc1 [Compound 505, 1-{4-[1-(1-benzylpiperidin-4-yl)-4-morpholin-4-yl-1H-pyrazolo[3,4-d]pyrimidin-6-yl]phenyl}-3-(2-phenylethyl)urea]	20	–	–	–
0.244	3.7	–	CN(C)CCNC(=O)c1cccc(-c2nc(N3CCOCC3)c3cnn(-c4ccccc4)c3n2)c1 [Compound 104]	3.3	–	–	–
0.054	0.04	–	O=C(Nc1cccnc1)Nc1ccc(-c2nc(N3CCOCC3)c3cnn(C4CCN(Cc5cccnc5)CC4)c3n2)cc1F [Compound 618, 1-(2-fluoro-4-{4-morpholin-4-yl-1-[1-(pyridin-3-ylmethyl)piperidin-4-yl]-1H-pyrazolo[3,4-d]pyrimidin-6-yl}phenyl)-3-pyridin-3-ylurea]	0.15	–	–	–
0.989	0.58	–	COC(=O)Nc1ccc(-c2nc(N3CCOCC3)c3cnn(C4CCN(C(=O)c5ccc(F)cc5)CC4)c3n2)cc1 [Example 445, methyl (4-{1-[1-(4-fluorobenzoyl)piperidin-4-yl]-4-morpholin-4-yl-1H-pyrazolo[3,4-d]pyrimidin-6-yl}phenyl)carbamate]	1.6	–	–	–
0.162	60	–	CC(=O)Nc1ccc(-c2nc(N3CCOCC3)c3cnn(-c4ccccc4)c3n2)cn1 [Compound 148]	60	–	–	–
0.037	0.027	–	CC(C)OC(=O)N1CCC(n2ncc3c(N4CCOCC4)nc(-c4ccc(NC(=O)Nc5ccncc5)cc4)nc32)CC1 [Compound 839, isopropyl 4-(4-morpholin-4-yl-6-{4-[(pyridin-4-ylcarbamoyl)amino]phenyl}-1H-pyrazolo[3,4-d]pyrimidin-1-yl)piperidine-1-carboxylate]	0.068	–	–	–
0.041	0.55	–	O=C(c1ccc(Cl)cc1)N1CCC(n2ncc3c(N4CCOCC4)nc(-c4cccc(O)c4)nc32)CC1 [Compound 27]	2.4	–	–	–
0.216	0.25	–	CNC(=O)Nc1ccc(-c2nc(N3CCOCC3)c3cnn(C4CCN(C(=O)c5cccnc5C)CC4)c3n2)cc1 [Compound 573, 1-methyl-3-[4-(1-{1-[(2-methylpyridin-3-yl)carbonyl]piperidin-4-yl}-4-morpholin-4-yl-1H-pyrazolo[3,4-d]pyrimidin-6-yl)phenyl]urea]	0.9	–	–	–
4.23	12	–	Nc1ccc(-c2nc(N3CCOCC3)c3cnn(C4CCN(CCCCO)CC4)c3n2)cc1 [Compound 749, 4-{4-[6-(4-aminophenyl)-4-morpholin-4-yl-1H-pyrazolo[3,4-d]pyrimidin-1-yl]piperidin-1-yl}butan-1-ol]	30	–	–	–
0.704	< 0.027	–	CCNC(=O)Nc1ccc(-c2nc(N3CCOCC3)c3cnn(C4CCN(C(=O)OCC)CC4)c3n2)cc1 [Compound 820, ethyl 4-(6-{4-[(ethylcarbamoyl)amino]phenyl}-4-morpholin-4-yl-1H-pyrazolo[3,4-d]pyrimidin-1-yl)piperidine-1-carboxylate]	0.13	–	–	–
1.1	0.34	–	O=C(c1ccccn1)N1CCC(n2ncc3c(N4CCOCC4)nc(-c4ccc5[nH]ccc5c4)nc32)CC1 [Example 51]	1.7	–	–	–
0.013	0.028	–	O=C(Nc1ccncc1)Nc1ccc(-c2nc(N3CCOCC3)c3cnn(C4CCN(Cc5cccnc5)CC4)c3n2)cc1 [Example 340, 1-(4-{4-morpholin-4-yl-1-[1-(pyridin-3-ylmethyl)piperidin-4-yl]-1H-pyrazolo[3,4-d]pyrimidin-6-yl}phenyl)-3-pyridin-4-ylurea]	0.1	–	–	–

Structure (SMILES)	IC50 ([1]; PI3Kα, read-out: PI3Kα IC50) [µM]	IC50 ([2]; Homo sapiens, LNCaP, 72 h) [µM]	IC50 [2] [µM]	IC50 ([3]; Homo sapiens, 72 h) [µM]	IC50 ([1]; PI3Kα IC50, PI3Kα) [µM]	IC50 ([2]; Homo sapiens, 72 h) [µM]	IC50 [3] [µM]
NCCC(=O)Nc1ccc(-c2nc(N3CCOCC3)c3cn[nH]c3n2)cc1 [Compound 283]	0.203	1.5	–	13	–	–	–

Source: patent US20080234262A1 (Wyeth, priority 2007, published 2008)
